In patent EP0533056A2, “Substituted aminopropanes, process for their preparation and their use as antimycotic agents” (HOECHST AKTIENGESELLSCHAFT, priority 1991, dated 1993):

Assays:
[1] = test system: Phospholipase von Candida albicans; test: Inhibition of released exoenzymes (phospholipase) of Candida albicans blastoconidia, egg-yolk agar plate, turbidity halo; format: cell-based; conditions: Candida albicans Stamm 200/175, in vitro
Description: Zur Feststellung der Enzymhemmung wurde eine Suspension von Candida albicans Blastokonidien (Stamm 200/175), wobei die Keimdichte photometrisch auf eine Extinktion von 0,5 (500 nm) eingestellt war, mit Präparatelösung bzw. zur Kontrolle mit Lösungsmittellösung vermischt und zwar • a) 100 µl Präparatelösung (Suspension) • + 900 µl Keimsuspension • b) 100 µl Lösungsmittel • + 900 µl Keimsuspension Jeweils 5 µl der 30 min bei 21 ° C inkubierten Blastokonidiensuspension wurden auf eine Agarplatte (Sabourand Agar mit Zusatz von 8 % Eigelb, 1 m NaCI, 5 mM CaC12) aufgetropft.
Die so beimpfte Platte wurde 3 Tage bei 37 ° C bebrütet.
Die Auswertung erfolgte derart, daß • 1. der Durchmesser (mm) der Candida albicans-Kolonie (behandelt und unbehandelt) sowie • 2. der Gasamtdurchmesser von Kolonie und Trübungshof, welcher durch Exoenzyme verursacht wurde (behandelt und unbehandelt), bestimmt wurde.
Aus der Bestimmung des Quotienten von Präparate- und Kontrollgruppe ergab sich ein Wert, der als Maß für die Enzymaktivität anzusehen war.

[2] = test system: Trichophyton mentagrophytes; test: Percent killing of Trichophyton mentagrophytes in vitro; format: cell-based; conditions: nach 14 h in aqua dest., read-out: %-Abtötung von Trichophyton mentagrophytes
From the text: Die pilzabtötende, antimykotische Wirksamkeit der Verbindungen wurde an einigen Beispielen (s. Tabelle 3) anhand der prozentualen Abtötung von Trichophyton mentagrophytes in vitro verifiziert (Standardpräparat Rilopirox als Vergleichssubstanz).

[3] = test system: Phospholipase aus Leberzellen; conditions: in-vitro-Test, literature (Pappu A.S. et al., Biochem. Pharmacol. 34, 521-24, 1985); cited from earlier work

SMILES | % Hemmung der Phospholipase ([1]; Konzentration 50 μm/ml) | % Hemmung der Phospholipase ([1]; Konzentration 100 μm/ml) | % Hemmung der Phospholipase ([1]; Konzentration 10 μm/ml) | % Hemmung der Phospholipase ([1]; Konzentration 5 μm/ml) | killing at 40 µg/mL [2] | killing at 80 µg/mL [2] | % Hemmung der Phospholipase ([1]; Konzentration 1 μm/ml) | Hemmwirkung gegenüber Phospholipase aus Leberzellen [3]
CC(C)(C)NCC(O)(COc1ccc(OCc2ccccc2)cc1)C(C)(C)C (centres unmarked) [1.5] | 100% | 100% | – | – | – | – | – | –
CC(C)NCC(O)(COc1ccc(Cl)cc1Cl)C(C)(C)C (centres unmarked) [1.7, 2-t-Butyl-1-(2,4-dichlorphenoxy)-3-isopropyl-amino-2-propanol] | – | 100% | 20% | – | – | – | – | –
CCCCNCC(O)(COc1ccc(C(C)(C)C)cc1)C(C)(C)C (centres unmarked) [1.11] | – | 100% | – | – | – | – | – | –
CCCCNCC(O)(COc1ccc(C(C)(C)C)cc1)c1ccc(-c2ccccc2)cc1 (centres unmarked) [1.15] | 100% | 100% | 100% | 100% | – | – | – | –
CCCCCCCCCCCCNCC(O)(COc1ccc(C(C)(C)C)cc1)c1ccc(-c2ccccc2)cc1 (centres unmarked) [1.17] | 100% | 100% | 100% | 100% | 97.8% | 100% | – | –
CCCCCCCOc1ccc(OCC(O)(CNCCCC)C(C)(C)C)cc1 (centres unmarked) [1.18] | 100% | 100% | 100% | 100% | – | – | – | –
CCCCCCCOc1ccc(OCC(O)(CNCc2ccccc2)C(C)(C)C)cc1 (centres unmarked) [1.19, 3-N-Benzylamino-2-t-butyl-1-(4-heptyloxy-phenyl-oxy)-2-propanol] | 100% | 100% | 100% | 100% | – | – | – | –
CCCCCCCOc1ccc(OCC(O)(CNCc2ccc(OC)c(OC)c2)C(C)(C)C)cc1 (centres unmarked) [1.21] | 100% | 100% | 100% | – | – | – | – | –
CCCCCCCOc1ccc(OCC(O)(CNCCC(c2ccccc2)c2ccccc2)C(C)(C)C)cc1 (centres unmarked) [1.22] | 100% | 100% | 10% | – | – | – | – | –
CCCCCCCCCCCCNCC(O)(COc1ccc(OCCCCCCC)cc1)C(C)(C)C (centres unmarked) [1.23] | 100% | 100% | 100% | 100% | – | – | – | –
CCCCCCCOc1ccc(OCC(O)(CNC(C)C)C(C)(C)C)cc1 (centres unmarked) [1.24] | 100% | 100% | 100% | 100% | – | – | – | –
CC1(C)CC(NCC(O)(COc2ccc(Oc3ccccc3)cc2)C(C)(C)C)CC(C)(C)N1 (centres unmarked) [1.31] | 100% | 100% | 100% | 7.7% | – | – | – | –
CCCCCCCCCCCCNCC(O)(COc1ccc(Oc2ccccc2)cc1)C(C)(C)C (centres unmarked) [1.34] | 100% | 100% | 100% | 33.3% | – | – | 6.3% | –
CC(C)(C)CC(C)(C)c1ccc(OCC(O)(CNCc2ccc(Cl)cc2Cl)C(C)(C)C)cc1 (centres unmarked) [1.48] | 100% | 100% | 100% | 100% | – | – | 14.3% | –
CCCCCCCCCCCCNCC(O)(COc1ccc(OCCCCCCC)cc1)c1ccccc1 (centres unmarked) [1.53] | 100% | 100% | 100% | 100% | – | – | – | –
CC(C)NCC(O)COc1cccc2ccccc12 (centres unmarked) [Propranolol, reference compound] | – | 30% | – | – | – | – | – | wirksamste Substanz
Cc1cc(COc2ccc(Oc3ccc(Cl)cc3)cc2)n(O)c(=O)c1 [Rilopirox, reference compound] | – | – | – | – | 100% | 100% | – | –
